In the assay the target is T1, S15V-hP2X3R (Homo sapiens, UniProt P56373, S15V).
T1 construct: expressed in transfected cells; host or cells: Xenopus laevis oocytes (cRNA injection)
T1 sequence (P56373 1-397 S15V): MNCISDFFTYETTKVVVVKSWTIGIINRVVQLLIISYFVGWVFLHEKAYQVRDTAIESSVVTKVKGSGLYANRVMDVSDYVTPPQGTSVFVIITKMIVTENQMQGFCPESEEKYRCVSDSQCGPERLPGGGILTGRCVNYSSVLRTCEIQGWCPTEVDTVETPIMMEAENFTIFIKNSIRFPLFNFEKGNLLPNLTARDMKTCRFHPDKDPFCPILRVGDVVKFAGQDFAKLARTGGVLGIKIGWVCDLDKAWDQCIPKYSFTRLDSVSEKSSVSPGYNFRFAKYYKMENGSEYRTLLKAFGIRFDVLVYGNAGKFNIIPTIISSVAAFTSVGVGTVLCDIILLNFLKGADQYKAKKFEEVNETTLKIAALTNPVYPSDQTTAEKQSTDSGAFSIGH
Put plainly: TEVC of ATP-induced currents, S15V-hP2X3R expressed in X. laevis oocytes (peak current protocol). It counts as cell-based. Conditions: for IC50 / inhibition at 1000 µM: 1 µM ATP; for IC50: 30-s preincubation of antagonist, X. laevis oocytes, −60 mV, geometric mean; for inhibition at 1000 µM: 1 mM antagonist, mean ± SEM, read-out: Max. inhibition at 1 mM; for reversibility of the inhibitory effect by washout: subsequent control current after washout. The source says: Oocyte expression plasmids encoding the wild-type (wt) and N-terminally His-tagged (His-) fusion constructs of the hP2X2R, hP2X3R, hP2X4R, and hP2X7R, and the mutant His-^20RMVL^23KVIV^23S^26N-hP2X1R, S^15V-rP2X3R, and His-S^15V-hP2X3R were the same as used in previous research ([Hausmann et al., 2006]; [Wolf et al., 2011]; [Hausmann et al., 2014]; [Obrecht et al., 2019]). In most cases, the N-terminal His-tagged variants of P2XRs were used here and in the previous studies to allow biochemical analyses on affinity-purified proteins using the same constructs. Although this was not required for the present study, it allows for better comparability with our previous studies. Capped cRNAs of different P2XRs were already available in the research group or were synthesized as previously described ([Schmalzing et al., 1991]; [Stolz et al., 2015]). cRNA was injected into collagenase-defolliculated X. laevis oocytes in aliquots of 41 nl or 23 nl (see Supplementary Table S1 for the amount of cRNA used for expression of the indicated P2XR) using a Nanoliter 2000 injector (World Precision Instruments, Sarasota, United States of America) as described previously ([Hausmann et al., 2014]; [Stolz et al., 2015]; [Obrecht et al., 2019]). To express the heteromeric hP2X2/3 receptor, cRNAs encoding His-hP2X2R and wt-hP2X3R were coinjected at a ratio (w/w) of 1:6. Oocytes were stored at 19°C in an oocyte ringer solution (ORi^+) containing 90 mM NaCl, 1 mM KCl, 1 mM CaCl2, 1 mM MgCl2, and 10 mM HEPES (Carl Roth, Karlsruhe, Germany) adjusted to pH 7.4 with NaOH and supplemented with 50 μg/ml gentamicin (AppliChem, Darmstadt, Germany). The procedures followed for the maintenance of and the surgical treatment for X. laevis adults were approved by the governmental animal care and use committee of the State Agency for Nature, Environment, and Consumer Protection (LANUV, Recklinghausen, Germany; reference no. 81-02.04.2019. A355), in compliance with Directive 2010/63/EU of the European Parliament and of the Council on the protection of animals used for scientific purpose.
Ion currents mediated by P2X receptors were evoked by the indicated concentration of ATP or α,β-meATP and were recorded 1 or 2 days after cRNA injection at ambient temperature at a holding potential of −60 mV by two-electrode voltage clamp (TEVC) as previously described ([Hausmann et al., 2006]). Calcium-free ORi^− solution (90 mM NaCl, 1 mM KCl, 2 mM MgCl2, 10 mM HEPES, pH 7.4) was used to avoid bias due to calcium-activated chloride channels (CaCC) endogenously expressed in X. laevis oocytes ([Miledi, 1982]; [Methfessel et al., 1986]). For recordings of wt-hP2X7R, the composition of the ORi^− solution was modified according to protocols described previously and contained 100 mM NaCl, 2.5 mM KCl, 1 mM MgCl2, 5 mM HEPES, pH 7.4 ([Klapperstück et al., 2000]). The oocytes were continuously superfused with ORi^− by gravity flow (5–10 ml/min). The agonists ATP or α,β-meATP and the investigated NSAIDs were diluted in ORi^− on the day of the recording. […] A peak current protocol (Supplementary Figure S1) was used to analyze fast- and intermediate desensitizing P2XR subtypes (P2X1R, P2X3R, and S^15V-P2X3R), and a steady-state protocol (Supplementary Figure S2) was used for slowly or partially desensitizing P2X subtypes (P2X2R, P2X2/3R, and P2X4R). For recordings of P2X7R, a modified steady-state protocol was used ([Hausmann et al., 2006]). The application of different bath solutions was controlled by computer-operated magnetic valves controlled by the CellWorks E 5.5.1 software (npi electronic, Tamm, Germany).
Antagonist concentration–response data and IC50 values were calculated by normalizing ATP-induced responses to the control responses (recorded in the presence and absence of the antagonist, respectively). […]

Structures are written as SMILES. Where “and” joins values, the source holds several entries; their conditions need not be identical. Equal entries are not always repeated.

For the compound `O=C(O)Cc1ccccc1Nc1c(Cl)cccc1Cl` [Diclofenac, diclofenac], half-maximal inhibition (IC50) was put at 138 µM; the inhibition (in general, the relative decrease from the control value, in per cent) at 1000 µM was about 80%; the “reversibility of the inhibitory effect by washout” value is on record as “not reversible”. Moreover, the “reduction of current amplitude in the presence of 3–10 µM diclofenac” value (3–10 µM diclofenac) is 20%–30%. Where the note is “read-out: % inhibition of 10 µM ATP-induced currents by 3 µM diclofenac, 3 µM diclofenac, 10 µM ATP, ± SEM”, the inhibition at 3 µM is -1.6%. Further, the inhibition at 30 µM (read-out: % inhibition of 10 µM ATP-induced currents by 30 µM diclofenac, 30 µM diclofenac, 10 µM ATP, ± SEM) turned out to be 24%.
On to `O=C(O)c1ccccc1Nc1cccc(C(F)(F)F)c1` [Flufenamic acid, flufenamic acid], for which the half-inhibitory concentration (IC50) (usually the concentration needed to halve the response being measured) was 221 µM and 222 µM; the inhibition at 1000 µM was 69.8%; the “reversibility of the inhibitory effect by washout” value was “not reversible”.
